Assay results published in US20220098203A1 (priority 2018, published 2022).
Read-outs that look alike come from different tables or passages of the source.

Legend:
MAT2A homodimer = molecular target: T1, MAT2A homodimer (Homo sapiens, UniProt P31153); test: MAT2A biochemical assay (liberated phosphate, PiColorLock Gold); settings: Table 5a; MAT2A biochemical assay; read-out: Enzyme Inhibition
T1 construct: inferred from the Ni sepharose purification and imidazole elution; made in house; host or cells: SF9 insect cells, recombinant baculovirus (Bac to Bac, pFASTBAC1)
In short: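 Baculovirus/Sf9-expressed, Ni-purified MAT2A homodimer preincubated with compound 60 min at 25 °C, then reacted 60 min at 25 °C with substrate mix of 500 μM ATP and 400 μM L-methionine, pH 7.0 (mix, not final levels). Phosphate released with SAM measured by PiColorLock Gold against phosphate standard curve.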

[1] = tested on: SAM in HCT116 MTAP-deleted cells; test: Cellular assay of target engagement (SAM), LC-MS/MS; assay type: cell-based, human; settings: 72 h, read-out: Cell 72 h SAM Inhibition (MTAP −/−)
In short: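 HCT116 cells with MTAP deleted were treated with compound for 72 h at 37°C/5% CO2. After quenching lysis in cold 80% methanol with 1 M acetic acid, SAM was quantified by LC-MS/MS against a d3-SAM internal standard.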

HCT116 MTAP-/- = test: Inhibition of cellular proliferation (Cell Titer Glo), HCT116 MTAP-/-; assay type: cell-based, human; settings: 4 days, read-out: 4 Day Relative Growth Inhibition (MTAP −/−)
In short: (§1)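 Isogenic HCT116 MTAP+/+ and MTAP−/− cells were plated, treated with MAT2A inhibitor after 24 h, and incubated 4 days at 37 °C. Proliferation was read by CellTiter-Glo ATP luminescence, blank-subtracted and normalized to 0.2% DMSO control.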

HCT116 MTAP+/+ = test: Inhibition of cellular proliferation (Cell Titer Glo), HCT116 MTAP+/+; assay type: cell-based; settings: Homo sapiens, HCT-116, 96 h, Table 5a, 4 days, read-out: 4 Day Relative Growth Inhibition (MTAP +/+)
In short: as §1

[2] = Homo sapiens, HCT-116, Table 5a
[3] = Homo sapiens, HCT-116, 96 h, Table 5a
[4] = Table 6, select pairs of compounds

T1 sequence (P31153 whole entry): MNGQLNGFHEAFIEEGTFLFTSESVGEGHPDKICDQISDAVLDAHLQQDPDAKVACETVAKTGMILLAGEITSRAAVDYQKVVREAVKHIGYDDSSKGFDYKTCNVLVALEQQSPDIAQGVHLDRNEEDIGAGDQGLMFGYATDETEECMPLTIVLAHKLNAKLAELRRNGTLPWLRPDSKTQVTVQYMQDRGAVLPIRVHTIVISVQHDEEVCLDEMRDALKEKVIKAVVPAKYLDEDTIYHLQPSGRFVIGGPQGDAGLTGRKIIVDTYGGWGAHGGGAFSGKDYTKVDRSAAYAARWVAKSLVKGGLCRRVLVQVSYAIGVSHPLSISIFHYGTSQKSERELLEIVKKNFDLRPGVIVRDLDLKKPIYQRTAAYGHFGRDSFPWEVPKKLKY

| IC50 (MAT2A homodimer) | IC50 [1, 2] | IC50 (HCT116 MTAP-/-; [3]) | IC50 (HCT116 MTAP+/+) | IC50 [1, 4] | IC50 (HCT116 MTAP-/-; [4]) | Compound |
| --- | --- | --- | --- | --- | --- | --- |
| < 100 nM | < 100 nM | < 100 nM | > 1000 nM |  |  | [2H]C([2H])([2H])Oc1ccc(N2C(=O)N(c3ccc4nn(CC)cc4c3)Cc3ccc(OCC(F)F)nc32)cc1 [Example 124, 7-(2,2-difluoroethoxy)-3-(2-ethyl-2H-indazol-5-yl)-1-(4-methoxy-d3-phenyl)-3,4-dihydropyrido[2,3-d]pyrimidin-2(1H)-one] |
| < 100 nM | < 100 nM | 100 to 1000 nM | > 1000 nM |  |  | CCOc1ccc2c(n1)N(c1ccc(OC)cc1)C(=O)N(c1ccc3ncn(C)c3c1)C2 [Example 138, 7-ethoxy-1-(4-methoxyphenyl)-3-(1-methyl-1H-benzo[d]imidazol-6-yl)-3,4-dihydropyrido[2,3-d]pyrimidin-2(1H)-one] |
| < 100 nM | < 100 nM | < 100 nM | > 1000 nM | < 100 nM | < 100 nM | CCNc1ccc2c(n1)N(c1ccc(OC(F)F)cc1)C(=O)N(c1ccc3ncn(C)c3c1)C2 [Example 274] |
| 100 to 1000 nM | > 1000 nM | > 1000 nM | > 1000 nM |  |  | CCOc1cnc2c(c1)N(c1ccc(OC(F)F)cc1)C(=O)N(c1ccc(OC)cc1)C2 [Example 289, 1-(4-(difluoromethoxy)phenyl)-7-ethoxy-3-(4-methoxyphenyl)-3,4-dihydropyrido[3,2-d]pyrimidin-2(1H)-one] |
| < 100 nM | 100 to 1000 nM | 100 to 1000 nM | > 1000 nM |  |  | Cn1cnc2ccc(N3Cc4cnc(NCC(F)(F)F)nc4N(c4ccc(-c5nc[nH]n5)cc4)C3=O)cc21 [Example 218, 1-(4-(1H-1,2,4-triazol-3-yl)phenyl)-3-(1-methyl-1H-benzo[d]imidazol-6-yl)-7-((2,2,2-trifluoroethyl)amino)-3,4-dihydropyrimido[4,5-d]pyrimidin-2(1H)-one] |
| < 100 nM | 100 to 1000 nM | 100 to 1000 nM | > 1000 nM |  |  | COc1ccc(N2Cc3ccc(NCC(F)(F)F)nc3N(c3ccc(OC(F)F)cc3)C2=O)cc1 [Example 406, 1-(4-(difluoromethoxy)phenyl)-3-(4-methoxyphenyl)-7-((2,2,2-trifluoroethyl)amino)-3,4-dihydropyrido[2,3-d]pyrimidin-2(1H)-one] |
| < 100 nM | 100 to 1000 nM | < 100 nM | > 1000 nM |  |  | [2H]C([2H])([2H])Oc1ccc(N2C(=O)N(c3ccc4nn(C5CC5)cc4c3)Cc3ccc(OCC(F)F)nc32)cc1 [Example 115, 3-(2-cyclopropyl-2H-indazol-5-yl)-7-(2,2-difluoroethoxy)-1-(4-methoxy-d3-phenyl)-3,4-dihydropyrido[2,3-d]pyrimidin-2(1H)-one] |
| < 100 nM | < 100 nM | 100 to 1000 nM | > 1000 nM |  |  | Cc1nc2ccc(N3Cc4cnc(NCC(F)(F)F)nc4N(c4ccc(OC(F)F)cc4)C3=O)cc2n1C [Example 424] |
| < 100 nM | < 100 nM | 100 to 1000 nM | > 1000 nM |  |  | Cn1cc2cc(N3Cc4ccc(OCC(F)F)nc4N(c4ccc5c(c4)ncn5C)C3=O)ccc2n1 [Example 403, 7-(2,2-difluoroethoxy)-1-(1-methyl-1H-benzo[d]imidazol-5-yl)-3-(2-methyl-2H-indazol-5-yl)-3,4-dihydropyrido[2,3-d]pyrimidin-2(1H)-one] |
| < 100 nM | < 100 nM | < 100 nM | 100 to 1000 nM |  |  | COc1ccc(N2C(=O)N(c3ccc4nn(C)cc4c3)Cc3ccc(OCC(F)F)nc32)cc1 [Example 141, 7-(2,2-difluoroethoxy)-1-(4-methoxyphenyl)-3-(2-methyl-2H-indazol-5-yl)-3,4-dihydropyrido[2,3-d]pyrimidin-2(1H)-one] |
| < 100 nM | < 100 nM | 100 to 1000 nM | > 1000 nM |  |  | Cn1cc2cc(N3Cc4ccc(OCC(F)F)nc4N(c4ccc5nscc5c4)C3=O)ccc2n1 [Example 177, 1-(benzo[c]isothiazol-5-yl)-7-(2,2-difluoroethoxy)-3-(2-methyl-2H-indazol-5-yl)-3,4-dihydropyrido[2,3-d]pyrimidin-2(1H)-one] |
| < 100 nM | 100 to 1000 nM | 100 to 1000 nM | 100 to 1000 nM |  |  | CCOc1ccc2c(c1)N(c1ccc(OC(F)F)cc1)C(=O)N(c1ccc3nn(C)cc3c1)C2 [Example 287, 1-[4-(difluoromethoxy)phenyl]-7-ethoxy-3-(2-methyl-2H-indazol-5-yl)-1,2,3,4-tetrahydroquinazolin-2-one] |
| < 100 nM | 100 to 1000 nM | 100 to 1000 nM | > 1000 nM |  |  | Cn1cc2cc(N3Cc4cc(F)c(OCC(F)F)cc4N(c4ccc(OC(F)F)cc4)C3=O)ccc2n1 [Example 285, 7-(2,2-difluoroethoxy)-1-(4-(difluoromethoxy)phenyl)-6-fluoro-3-(2-methyl-2H-indazol-5-yl)-3,4-dihydroquinazolin-2(1H)-one] |
| < 100 nM | 100 to 1000 nM | 100 to 1000 nM | > 1000 nM |  |  | CCOc1cnc2c(c1)N(c1ccc(OC(F)F)cc1)C(=O)N(c1ccc3nn(C)cc3c1)C2 [Example 290] |
| < 100 nM | < 100 nM | < 100 nM | > 1000 nM |  |  | [2H]C([2H])([2H])Oc1ccc(N2C(=O)N(c3ccc4nn(C([2H])([2H])[2H])cc4c3)Cc3cnc(NCC(F)(F)F)nc32)cc1 [Example 423, 1-(4-(methoxy-d3)phenyl)-3-(2-(methyl-d3)-2H-indazol-5-yl)-7-((2,2,2-trifluoroethyl)amino)-3,4-dihydropyrimido[4,5-d]pyrimidin2(1H)-one] |
| < 100 nM | < 100 nM | < 100 nM | > 1000 nM |  |  | [2H]C([2H])([2H])Oc1ccc(N2C(=O)N(c3ccc4nn(C)cc4c3)Cc3cnc(NCC(F)(F)F)nc32)cc1 [Example 421, 1-(4-(methoxy-d3)phenyl)-3-(2-methyl-2H-indazol-5-yl)-7-((2,2,2-trifluoroethyl)amino)-3,4-dihydropyrimido[4,5-d]pyrimidin-2(1H)-one] |
| < 100 nM | < 100 nM | < 100 nM | > 1000 nM |  |  | CCOc1ccc2c(n1)N(c1ccc(-c3nnc[nH]3)cc1)C(=O)N(c1ccc3nn(C)cc3c1)C2 [Example 153, 1-(4-(4H-1,2,4-triazol-3-yl)phenyl)-7-ethoxy-3-(2-methyl-2H-indazol-5-yl)-3,4-dihydropyrido[2,3-d]pyrimidin-2(1H)-one] |
| < 100 nM | < 100 nM | < 100 nM | > 1000 nM |  |  | Cn1cc2cc(N3Cc4ccc(OCC(F)F)nc4N(c4ccc(NC(N)=O)cc4)C3=O)ccc2n1 [Example 412, 1-(4-(7-(2,2-difluoroethoxy)-3-(2-methyl-2H-indazol-5-yl)-2-oxo-3,4-dihydropyrido[2,3-d]pyrimidin-1(2H)-yl)phenyl)urea] |
| < 100 nM | 100 to 1000 nM | < 100 nM | 100 to 1000 nM |  |  | CCOc1cnc2c(n1)N(c1ccc(OC(F)F)cc1)C(=O)N(c1ccc(OC)cc1)C2 [Example 186, 1-(4-(difluoromethoxy)phenyl)-7-ethoxy-3-(4-methoxyphenyl)-3,4-dihydropteridin-2(1H)-one] |
| < 100 nM | 100 to 1000 nM | 100 to 1000 nM | > 1000 nM |  |  | COc1ccc(N2C(=O)N(c3ccc4nn(C)cc4c3)Cc3c(OC)nc(NCC(F)(F)F)nc32)cc1 [Example 246, 5-methoxy-1-(4-methoxyphenyl)-3-(2-methyl-2H-indazol-5-yl)-7-((2,2,2-trifluoroethyl)amino)-3,4-dihydropyrimido[4,5-d]pyrimidin-2(1H)-one] |
| < 100 nM | < 100 nM | 100 to 1000 nM | > 1000 nM |  |  | CCOc1ccc2c(n1)N(c1ccc(OC(F)F)cc1)C(=O)N(c1ccn3nccc3c1)C2 [Example 106, 1-(4-(difluoromethoxy)phenyl)-7-ethoxy-3-(pyrazolo[1,5-a]pyridin-5-yl)-3,4-dihydropyrido[2,3-d]pyrimidin-2(1H)-one] |
| < 100 nM | < 100 nM | < 100 nM | > 1000 nM |  |  | [2H]C([2H])([2H])Oc1ccc(N2C(=O)N(c3ccc4nn(C)cc4c3)Cc3ccc(OCC)nc32)cc1 [Example 137, 7-ethoxy-1-(4-(methoxy-d3)phenyl)-3-(2-methyl-2H-indazol-5-yl)-3,4-dihydropyrido[2,3-d]pyrimidin-2(1H)-one] |
| 100 to 1000 nM | 100 to 1000 nM | > 1000 nM | > 1000 nM |  |  | COc1ccc(N2Cc3cnc(NCC(F)(F)F)nc3N(c3ccc(C(F)(F)F)cc3)C2=O)cc1 [Example 250, 3-(4-methoxyphenyl)-7-((2,2,2-trifluoroethyl)amino)-1-(4-(trifluoromethyl)phenyl)-3,4-dihydropyrimido[4,5-d]pyrimidin-2(1H)-one] |
| < 100 nM | < 100 nM | < 100 nM | < 100 nM | < 100 nM | < 100 nM | Cn1cnc2ccc(N3Cc4ccc(NCC(F)(F)F)nc4N(c4ccc(OC(F)F)cc4)C3=O)cc21 [Example 271] |
